Here are results for eight compounds from PubChem BioAssay (NCI).

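Cells were grown in 96-well plates and exposed to each compound for 48 hours at five concentrations; endpoints were interpolated linearly between bracketing concentrations, or set to the highest concentration if not reached. At the GI50, growth is halved. TGI marks complete inhibition of growth.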 Where only a bound is given, the exact number is not on record here.

Some test systems named below: ACHN renal; BT-549 breast; HL-60(TB) leukemia; HOP-92 NSCLC; K-562 leukemia; PC-3 prostate; SF-295 CNS; SF-539 CNS; SNB-19 CNS; TK-10 renal.
Experiment in all cases: inhibition of tumour cell growth, NCI panel, 48 h

Take `CCOC(=O)Cc1csc(NC(=O)C(OC(=O)c2ccc(N)cc2)c2ccccc2)n1` (centres undefined): the GI50 in the test on ACHN renal was 44.9 µM; in the test on BT-549 breast, 40.3 µM; in the test on HL-60(TB) leukemia, 18400 nM; in the test on HOP-92 NSCLC it was 62000 nM; in the test with K-562 leukemia, 31.6 µM; in the test with PC-3 prostate, 50700 nM. Also, the GI50 with SF-295 CNS is 42200 nM; with SF-539 CNS, 30.6 µM; in the test with SNB-19 CNS, 53 µM; with TK-10 renal it was 56600 nM. The TGI is greater than 100 µM with ACHN renal; greater than 100 µM in the test on BT-549 breast; 92.5 µM in the test with HL-60(TB) leukemia; greater than 100 µM with HOP-92 NSCLC; greater than 100 µM in the test with K-562 leukemia; greater than 100 µM in the test on PC-3 prostate. Besides, the TGI was greater than 100 µM in the test on SF-295 CNS, 87.4 µM with SF-539 CNS, greater than 100 µM in the test with SNB-19 CNS and greater than 100 µM in the test on TK-10 renal.

For the compound `CC(C)(C)NCCC(O)c1cc(C(F)(F)F)nc2c(C(F)(F)F)cccc12` (centres undefined), the TGI was determined as 21.1 µM with ACHN renal; 23.2 µM in the test with BT-549 breast; 27.5 µM in the test on HL-60(TB) leukemia; 26.2 µM in the test with HOP-92 NSCLC; 19.9 µM in the test on K-562 leukemia; 20.6 µM with PC-3 prostate. The TGI in the test on SF-295 CNS turned out to be 22.6 µM; with SF-539 CNS, 31 µM; with SNB-19 CNS it was 27.3 µM; in the test with TK-10 renal it was 24.8 µM.

On to `Cc1csc(Nc2nc(-c3cccc(Cl)c3)nc(C(Cl)(Cl)Cl)n2)n1`, for which the GI50 with ACHN renal is 0.888 µM; in the test on BT-549 breast, greater than 33.3 µM; in the test on HL-60(TB) leukemia it was 994 nM; in the test with HOP-92 NSCLC, 801 nM; in the test with K-562 leukemia, 7.41 µM; in the test with PC-3 prostate, 1270 nM. Further, the GI50 in the test on SF-295 CNS was 1290 nM; in the test on SF-539 CNS, 2.04 µM; in the test with SNB-19 CNS, 3.27 µM; with TK-10 renal it was 2510 nM. Also, the TGI in the test with ACHN renal was 3.46 µM; in the test with BT-549 breast, greater than 33.3 µM; in the test with HL-60(TB) leukemia, 3.81 µM; in the test on HOP-92 NSCLC, 3.21 µM; in the test on K-562 leukemia, greater than 33.3 µM; in the test with PC-3 prostate it was 7.85 µM. Further, the TGI with SF-295 CNS was 9.89 µM; with SF-539 CNS, 11.7 µM; in the test with SNB-19 CNS, greater than 33.3 µM; in the test on TK-10 renal it was 14.4 µM.

In the case of `Cc1nc(C(N)=S)sc1C(=O)CC(=O)C(=O)Nc1cccc(Cl)c1C`, the TGI with ACHN renal, in the test on BT-549 breast, in the test with HL-60(TB) leukemia, in the test with HOP-92 NSCLC, in the test with K-562 leukemia and in the test with PC-3 prostate was greater than 100 µM throughout. For the same compound, the TGI with SF-295 CNS, in the test on SF-539 CNS, in the test on SNB-19 CNS and in the test on TK-10 renal was greater than 100 µM throughout.

For `CCSc1nc(N)c2cnn(C)c2n1`, the GI50 in the test with ACHN renal is 44.4 µM; in the test on BT-549 breast, 42.9 µM; with HL-60(TB) leukemia it was 52100 nM; in the test on HOP-92 NSCLC, 77400 nM; in the test on K-562 leukemia, 54.5 µM; with PC-3 prostate, 38900 nM. Moreover, the GI50 in the test with SF-295 CNS was 51700 nM; in the test with SF-539 CNS it was 36.1 µM; in the test on SNB-19 CNS, 58.4 µM; with TK-10 renal, 34100 nM. Besides, the TGI with ACHN renal, with BT-549 breast, with HL-60(TB) leukemia, with HOP-92 NSCLC, in the test with K-562 leukemia and in the test with PC-3 prostate was greater than 100 µM each time. For the same compound, the TGI in the test on SF-295 CNS, with SF-539 CNS, with SNB-19 CNS and in the test with TK-10 renal was greater than 100 µM each time.

As for `O=[N+]([O-])c1cccc(-c2ncc(-c3ccc(Cl)cc3Cl)[nH]2)c1`, the GI50 in the test with ACHN renal is 7.48 µM; in the test with BT-549 breast it was 3.05 µM; in the test with HL-60(TB) leukemia it was 3800 nM; in the test with K-562 leukemia, 2.1 µM; in the test with PC-3 prostate, 3690 nM; in the test with SF-295 CNS it was 2140 nM. In addition, the GI50 with SF-539 CNS is 15.4 µM; in the test with SNB-19 CNS, 7.85 µM; with TK-10 renal, 3300 nM. In addition, the TGI with ACHN renal was 18.3 µM; in the test with BT-549 breast it was 8.07 µM; with HL-60(TB) leukemia it was 17.3 µM; with HOP-92 NSCLC, 35.4 µM; with K-562 leukemia, greater than 19.7 µM; in the test with PC-3 prostate it was 14.9 µM. Besides, the TGI with SF-295 CNS worked out at 5.28 µM; in the test with SF-539 CNS, 29.3 µM; with SNB-19 CNS it was 23.2 µM; in the test with TK-10 renal, 13.1 µM.

In the case of `O=c1c2cc(F)ccc2sc2c(NCCCN3CCCC3)nc3ccccc3c12`, the GI50 in the test with ACHN renal was 1.69 µM; with BT-549 breast, 2.99 µM; with HL-60(TB) leukemia it was 2060 nM; with HOP-92 NSCLC, 1130 nM; in the test with K-562 leukemia, 2.06 µM; in the test with PC-3 prostate, 1600 nM. Further, the GI50 in the test on SF-295 CNS is 2100 nM; in the test on SF-539 CNS, 1.69 µM; with SNB-19 CNS, 1.7 µM; in the test on TK-10 renal, 1990 nM. Further, the TGI in the test with ACHN renal was 3.18 µM; in the test on BT-549 breast it was 12 µM; in the test with HL-60(TB) leukemia, 4.58 µM; with HOP-92 NSCLC, 3.85 µM; in the test on K-562 leukemia it was 4.86 µM; with PC-3 prostate, 3.15 µM. For the same compound, the TGI in the test on SF-295 CNS was found to be 4.39 µM; in the test with SF-539 CNS, 3.19 µM; in the test with SNB-19 CNS, 3.53 µM; in the test with TK-10 renal, 3.65 µM.

`CCCCCCCCCCCCCCCCCC1=NC(C)(C)CN1CCO`: the GI50 was 1.58 µM in the test on ACHN renal; 19.8 µM in the test with BT-549 breast; 1810 nM with HL-60(TB) leukemia; 1400 nM in the test on HOP-92 NSCLC; 1.53 µM in the test with K-562 leukemia; 1630 nM in the test with PC-3 prostate. For the same compound, the GI50 is 1790 nM in the test with SF-295 CNS, 1.75 µM with SF-539 CNS, 1.66 µM with SNB-19 CNS and 1730 nM in the test with TK-10 renal. Further, the TGI stood at 2.99 µM with ACHN renal; 48 µM in the test on BT-549 breast; 4.11 µM with HL-60(TB) leukemia; 7.84 µM with HOP-92 NSCLC; 3.35 µM in the test with K-562 leukemia; 4.43 µM with PC-3 prostate. The TGI was determined as 3.68 µM with SF-295 CNS, 3.15 µM in the test with SF-539 CNS, 3.28 µM in the test with SNB-19 CNS and 3.31 µM with TK-10 renal.
